Test results published in paper PMC9965125, “New NSAID Conjugates as Potent and Selective COX-2 Inhibitors: Synthesis, Molecular Modeling and Biological Investigation” (Molecules, 2023).
Values joined by “and” are separate entries in the source; they are usually repeats but may differ in a detail not shown here. Equal entries are not always repeated.

Columns and labels:
[1] = test system: carrageenan induced paw edema; test: carrageenan-induced rat paw edema; format: in vivo; conditions: for % Inhibition of Edema ± Standard Error / Mean Edema Thickness: 10 mg/kg indomethacin mol equivalent i.p.; for Mean Edema Thickness: ± standard error
Description: Anti-inflammatory activity screening
The anti-inflammatory activity of the tested compounds was determined in-vivo by the acute carrageenan induced paw edema standard method in rats. Adult Wister rats of either sex (pregnant female animals were excluded) weighing 120–150 g were divided into 19 groups of 6 animals each. The tested compounds dissolved in DMSO, at a dose of 10 mg kg-1 (rat body […]
inflammation. The control group was given DMSO only. Paw edema was induced by subcutaneous injection of freshly prepared 1% solution of carrageenan in saline (0.9%, 0.1 ml per rat) into subplantar tissue of the right hind paw of rats. The thickness of the paw was measured (in mm) after successive time intervals (1, 2, 3, 4 and 24 h) and compared with the initial hind paw thickness of each rat for determining the edema thickness. Data were collected, checked, revised and analyzed (SPSS 16). Quantitative variables from normal distribution were expressed as means ± SE “standard error”. The anti-inflammatory activity was expressed as percentage inhibition of edema thickness in treated animals in comparison with the control group according to eqn. (1) […]
% Inhibition of edema= Vc-Vt x 100 … .. (1)
Where, Vc and Vt are the means of edema paw thickness for the control and tested compound treated animal groups, respectively.
The potency of the tested compounds was expressed as % inhibition of edema thickness […]
% Potency = % inhibition of edema for the tested compound treated group x 100 … . (2)

[2] = test system: acetic acid-induced abdominal writhing; test: acetic acid-induced abdominal writhing assay (peripheral analgesic); format: in vivo, mice; conditions: for % Inhibition/Protection / Writing Reflex ± SE: 10 mg/kg indomethacin mol equivalent i.p.; for Potency: % inhibition/protection compared to indomethacin; for Writing Reflex ± SE: number of writhing counted for 30 min
Description: Peripheral analgesic testing
Peripheral analgesic activity was measured by the standard acetic acid-induced writhing […]
One hour after intraperitoneally (i,p.) administration of 10 mg kg−1 (mice body weight) […]
distilled/sterile water by the aid of two drops of Tween 80, each mouse was injected with 0.1 ml of 1% acetic acid solution i.p. The control group animals were given sterile/distilled water only with few drops of Tween 80. Starting 5 min after the acetic acid injection, the number of muscular contractions in each mouse was counted for 30 min. A significant reduction in the number of writhing by any test compound as compared to control animals was considered as a positive analgesic response. Percentage protection was calculated according to equ. (3), where n stands for the average number of writhing in the control group and n' is the average number of writhing in the treated group. The % potency was calculated by equ. (4) (Table 2).
% Inhibition/protection = n−n′ x100 … . (3)

[3] = test system: hot plate latency; test: hot plate assay (central analgesic); format: in vivo, mice; conditions: for % Protection / Latency Period ± SE: 10 mg/kg indomethacin mol equivalent i.p.; for Latency Period ± SE: cutoff 15 sec; for Potency: at 120 min compared to indomethacin
Description: The % potency was calculated by equ. (4) (Table 2). […]
% Potency = % protection of the tested compound x 100 ……. (4) […]
Central analgesic (hot plate) testing
The standard hot plate technique was undertaken by in vivo standard hot plate test [ 1,2]. […]
by placing them on a hot plate maintained at 55 ± 1 °C, 30 min. […]
suspended in sterile/distilled water by the ai d of two drops of Tween 80, and recording the reaction time in seconds for forepaw licking or jumping. The control group animals were given sterile/distilled water only with few drops of Tween 80. The maximum cutoff time was chosen as 15 sec. to prevent tissue damage. Response latencies were measured 30, 60, 90 and 120 min. after the application. The % protection was calculated by equ. ( 5) where, T1, T0 are the latency time mean of the tested compound and control group, respectively (Table 3).

SMILES	% Inhibition of Edema ± Standard Error ([1]; 1 h)	% Inhibition of Edema ± Standard Error ([1]; 24 h)	% Inhibition/Protection [2]	Potency [2]	Writing Reflex ± SE [2]	% Protection ([3]; after 30 min)	Latency Period ± SE ([3]; after 30 min)	% Protection ([3]; after 60 min)	Latency Period ± SE ([3]; after 60 min)	% Protection ([3]; after 90 min)	Latency Period ± SE ([3]; after 90 min)	Latency Period ± SE ([3]; after 120 min)	Potency [3]	% Inhibition of Edema ± Standard Error ([1]; 4 h)	% Protection ([3]; after 120 min)	further results
CC(C)Cc1ccc(C(C)C(=O)OCc2cn(-c3ccc(F)cc3)nn2)cc1 (stereo not drawn) [Compound 5c, (1-(4-Fluorophenyl)-1H-1,2,3-triazol-4-yl)methyl 2-(4-isobutylphenyl)propanoate]	0.00 ± 1.0%	0.00 ± 0.2%	83.3%	116.0%	6.7 ± 0.5	112.1%	14.17 ± 2.6 s	106.3%	15.0 ± 2.3 s	67.3%	14.91 ± 2.5 s	10.63 ± 1.8 s	31.9			% Protection ([3]; after 120 min, 10 mg/kg): 18%; % protection relative to its parent drug ibuprofen ([3]; at 30 min): 1.8 folds
COc1ccc(-n2cc(COC(=O)C(C)c3ccc(CC(C)C)cc3)nn2)cc1 (stereo not drawn) [Compound 5f, (1-(4-Methoxyphenyl)-1H-1,2,3-triazol-4-yl)methyl 2-(4-isobutylphenyl)propanoate]		2.5 ± 0.9%	80.0%	111.4%	8.0 ± 1.4	90.1%	12.7 ± 0.9 s	56.8%	11.40 ± 1.5 s	19.0%	10.60 ± 1.9 s	9.03 ± 1.6 s	0.4	1.8 ± 0.7%	0.2%	
CC(C)Cc1ccc(C(C)C(=O)OCc2cn(-c3ccc([N+](=O)[O-])cc3)nn2)cc1 (stereo not drawn) [Compound 5g, (1-(4-Nitrophenyl)-1H-1,2,3-triazol-4-yl)methyl 2-(4-isobutylphenyl)propanoate]	34.0 ± 1.8%	0.00 ± 0.5%	65.0%	90.5%	14.0 ± 1.9	87.1%	12.5 ± 2.1 s	73.2%	12.59 ± 1.5 s	19.0%	10.60 ± 2.6 s	11.54 ± 2.2 s	49.7		28.1%	
COc1ccc2c(c1)c(CC(=O)OCc1cn(-c3ccccc3Cl)nn1)c(C)n2C(=O)c1ccc(Cl)cc1 [Compound 8a, (1-(2-Chlorophenyl)-1H-1,2,3-triazol-4-yl)methyl 2-(1-(4-chlorobenzoyl)-5-methoxy-2-methyl-1H-indol-3-yl)acetate]	0.00 ± 1.5%		49.3%	68.7%	20.3 ± 1.8	82.5%	12.19 ± 1.9 s	85.8%	13.51 ± 1.7 s	55.4%	13.85 ± 1.4 s	13.63 ± 1.3 s	90.8	26.9 ± 1.1%	51.3%	Mean Edema Thickness ([1]; 1 h): 0.863 ± 0.07 mm; % Inhibition of Edema ± Standard Error ([1]; 2 h): 44.9 ± 1.7%; Mean Edema Thickness ([1]; 2 h): 0.393 ± 0.08 mm; % Inhibition of Edema ± Standard Error ([1]; 3 h, 10 mg/kg): 32.5% and 32.5 ± 1.5%; Mean Edema Thickness ([1]; 3 h): 0.488 ± 0.07 mm; Mean Edema Thickness ([1]; 4 h): 0.521 ± 0.03 mm; % Inhibition of Edema ± Standard Error ([1]; 24 h, 10 mg/kg): 33.3% and 33.3 ± 2.4%; Mean Edema Thickness ([1]; 24 h): 0.614 ± 0.09 mm; % Potency ([1]; % inhibition of edema thickness relative to indomethacin at 3 h): 40.1%
COc1ccc2c(c1)c(CC(=O)OCc1cn(-c3ccc(Cl)cc3)nn1)c(C)n2C(=O)c1ccc(Cl)cc1 [Compound 8b, (1-(4-Chlorophenyl)-1H-1,2,3-triazol-4-yl)methyl 2-(1-(4-chlorobenzoyl)-5-methoxy-2-methyl-1H-indol-3-yl)acetate]			46.3%	64.5%	21.5 ± 1.5	2.4%	6.84 ± 1.4 s	14.3%	8.31 ± 1.9 s	11.2%	9.91 ± 1.7 s	9.88 ± 2.0 s	17.2		9.7%	anti-inflammatory efficacy (in words) ([1]; carrageenan-induced rat paw edema): no anti-inflammatory efficacy
COc1ccc2c(c1)c(CC(=O)OCc1cn(-c3ccc(F)cc3)nn1)c(C)n2C(=O)c1ccc(Cl)cc1 [Compound 8c, (1-(4-Fluorophenyl)-1H-1,2,3-triazol-4-yl)methyl 2-(1-(4-chlorobenzoyl)-5-methoxy-2-methyl-1H-indol-3-yl)acetate]		0.00 ± 1.0%	41.3%	57.5%	23.5 ± 1.4	69.5%	11.32 ± 0.8 s	29.2%	9.39 ± 1.1 s	27.9%	11.40 ± 1.6 s	13.34 ± 1.8 s	85.1		48.1%	
COc1ccc2c(c1)c(CC(=O)OCc1cn(-c3ccc(C)cc3)nn1)c(C)n2C(=O)c1ccc(Cl)cc1 [Compound 8d, (1-(p-Tolyl)-1H-1,2,3-triazol-4-yl)methyl 2-(1-(4-chlorobenzoyl)-5-methoxy-2-methyl-1H-indol-3-yl)acetate]	0.00 ± 0.8%	0.00 ± 0.4%	62.5%	87.0%	15.0 ± 1.6	97.8%	13.21 ± 2.5 s	74.0%	12.65 ± 2.0 s	50.1%	13.37 ± 1.6 s	13.39 ± 1.2 s	86.0	0.00 ± 0.6%	48.6%	% Inhibition of Edema ± Standard Error ([1]; 3 h): 0.00 ± 0.5%
